Data on 32 compounds can be found in patent US20240199623A1 (ILDONG PHARMACEUTICAL CO., LTD., priority 2020, published 2024).

Where only a bound is given, the exact number is not on record here.

Sequence of human wild type-CFTR (P13569 whole entry): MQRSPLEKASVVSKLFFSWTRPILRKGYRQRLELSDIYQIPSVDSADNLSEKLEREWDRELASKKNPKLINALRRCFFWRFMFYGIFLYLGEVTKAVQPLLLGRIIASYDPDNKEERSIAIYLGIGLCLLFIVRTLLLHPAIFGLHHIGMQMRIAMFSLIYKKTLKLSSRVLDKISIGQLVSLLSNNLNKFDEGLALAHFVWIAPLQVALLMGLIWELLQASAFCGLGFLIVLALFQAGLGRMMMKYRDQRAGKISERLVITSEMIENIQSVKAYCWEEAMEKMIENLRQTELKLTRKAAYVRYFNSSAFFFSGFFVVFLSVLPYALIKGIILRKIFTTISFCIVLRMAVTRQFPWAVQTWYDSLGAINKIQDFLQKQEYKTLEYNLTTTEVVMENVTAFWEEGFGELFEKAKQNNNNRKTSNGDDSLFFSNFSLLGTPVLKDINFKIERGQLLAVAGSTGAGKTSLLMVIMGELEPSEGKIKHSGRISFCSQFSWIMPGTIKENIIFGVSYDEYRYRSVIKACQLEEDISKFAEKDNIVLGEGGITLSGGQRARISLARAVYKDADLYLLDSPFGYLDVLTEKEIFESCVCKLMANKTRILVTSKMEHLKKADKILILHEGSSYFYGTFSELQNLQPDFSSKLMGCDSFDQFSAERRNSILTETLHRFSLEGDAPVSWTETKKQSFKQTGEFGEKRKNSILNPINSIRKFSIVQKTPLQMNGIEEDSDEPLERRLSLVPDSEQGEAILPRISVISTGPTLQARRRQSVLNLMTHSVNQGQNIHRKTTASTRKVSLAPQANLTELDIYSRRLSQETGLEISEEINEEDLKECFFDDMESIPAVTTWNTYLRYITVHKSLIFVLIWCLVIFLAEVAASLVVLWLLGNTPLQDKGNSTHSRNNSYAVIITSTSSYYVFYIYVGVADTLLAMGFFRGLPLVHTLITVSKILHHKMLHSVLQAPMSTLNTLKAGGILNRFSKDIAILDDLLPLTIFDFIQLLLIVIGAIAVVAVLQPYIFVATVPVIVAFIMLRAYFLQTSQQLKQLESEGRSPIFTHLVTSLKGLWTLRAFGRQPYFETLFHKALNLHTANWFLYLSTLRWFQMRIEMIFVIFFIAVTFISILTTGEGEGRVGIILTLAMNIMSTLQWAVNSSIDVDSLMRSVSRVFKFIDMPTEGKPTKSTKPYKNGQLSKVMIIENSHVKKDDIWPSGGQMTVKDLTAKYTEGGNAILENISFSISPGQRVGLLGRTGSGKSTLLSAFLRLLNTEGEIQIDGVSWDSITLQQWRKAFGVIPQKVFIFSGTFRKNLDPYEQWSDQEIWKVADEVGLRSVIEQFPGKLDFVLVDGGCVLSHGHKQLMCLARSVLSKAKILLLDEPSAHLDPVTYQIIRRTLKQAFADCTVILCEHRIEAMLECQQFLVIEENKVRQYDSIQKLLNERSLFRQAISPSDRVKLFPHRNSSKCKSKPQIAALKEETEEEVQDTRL

For the assay, the target named is human wild type-CFTR (Homo sapiens, UniProt P13569). The assay is described as follows: Cell-based YFP assay. Also on record: expressed in transfected cells; host or cells: CHO-K1 (Chinese hamster ovary). Particulars: CHO-K1 cells expressing human wild type-CFTR and YFP-H148Q/I152L; forskolin 20 μM = 100% activity; read-out: Cell-based YFP Assay (EC50) Concentration Range. An outline of the steps:
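CHO-K1 cells co-expressing human wild-type CFTR and YFP-H148Q/I152L halide sensor, grown 48 h at 37 °C, then in PBS. YFP quenching by I⁻ influx read at 37 °C after adding 140 mM I⁻ solution, sampled every 0.4 s for 14 s. Triplicates averaged; EC50 fitted.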
In the case of `COc1ccc(-c2ccnc3cc(C(=O)N4CC(C)NC(C)C4)nn23)cc1OC` (centres unmarked) [Compound 347, (7-(3,4-dimethoxyphenyl)pyrazolo[1,5-a]pyrimidin-2-yl)(3,5-dimethylpiperazin-1-yl)methanone], the EC50 is at least 2 µM.

As for `COc1ccc(-c2ccnc3cc(C(=O)N4CCNC(=O)C4)nn23)cc1OC` [Compound 180, 4-(7-(3,4-dimethoxyphenyl)pyrazolo[1,5-a]pyrimidine-2-carbonyl) piperazin-2-one], the EC50 was at least 2 µM.

As to `CCCOC(=O)c1ccc(NC(=O)c2cc3nccc(-c4ccc(OC)c(OC)c4)n3n2)cc1` [Compound 335, propyl 4-(7-(3,4-dimethoxyphenyl)pyrazolo [1,5-a]pyrimidine-2-carboxamido)benzoate], the EC50 is under 0.2 µM.

As to `COc1ccc(-c2ccnc3cc(C(=O)N4CCN(C5CC5)CC4)nn23)cc1OC` [Compound 184, (4-cyclopropylpiperazin-1-yl)(7-(3,4-dimethoxyphenyl)pyrazolo [1,5-a]pyrimidin-2-yl)methanone], the EC50 was in the range of 0.2 to 2 µM.

As for `CCN1CCN(c2ccc(NC(=O)c3cc4nccc(-c5ccc(OC)c(OC)c5)n4n3)cc2)CC1` [Compound 270, 7-(3,4-dimethoxyphenyl)-N-(4-(4-ethylpiperazin-1-yl)phenyl)pyrazolo[1,5-a]pyrimidine-2-carboxamide], the EC50 is under 0.2 µM.

As for `COc1ccc(-c2ccnc3cc(C(=O)NC4(C(=O)O)CC4)nn23)cc1OC` [Compound 29, 1-(7-(3,4-dimethoxyphenyl)pyrazolo[1,5-a]pyrimidine-2-carboxamido) cyclopropane-1-carboxylic acid], the EC50 is at least 2 µM.

Turning to `COc1ccc(-c2ccnc3cc(C(=O)Nc4cccc(C(=O)N5CCNCC5)c4)nn23)cc1OC` [Compound 80, 7-(3,4-dimethoxyphenyl)-N-(3-(piperazine-1-carbonyl)phenyl)pyrazolo [1,5-a]pyrimidine-2-carboxamide], the EC50 was at least 2 µM.

As to `COc1ccc(-c2ccnc3cc(C(=O)N[C@H]4CC[C@H](C(N)=O)CC4)nn23)cc1OC` [Compound 74, N-((1R,4R)-4-carbamoylcyclohexyl)-7-(3,4-dimethoxyphenyl)pyrazolo [1,5-a]pyrimidine-2-carboxamide], the EC50 is at least 2 µM.

Regarding `CCN(CC)CCCNC(=O)c1ccc(NC(=O)c2cc3nccc(-c4ccc(OC)c(OC)c4)n3n2)cc1` [Compound 222, N-(4-((3-(diethylamino)propyl)carbamoyl)phenyl)-7-(3,4-dimethoxyphenyl) pyrazolo[1,5-a]pyrimidine-2-carboxamide], the EC50 was at least 2 µM.

Regarding `COc1ccc(-c2ccnc3cc(C(=O)Nc4ccc(N(C)C)cn4)nn23)cc1OC` [Compound 312, 7-(3,4-dimethoxyphenyl)-N-(5-(dimethylamino)pyridin-2-yl)pyrazolo [1,5-a]pyrimidine-2-carboxamide], the EC50 was under 0.2 µM.

As for `COc1ccc(-c2ccnc3cc(C(=O)Nc4ccc(C(=O)N5CCN(C)CC5)cn4)nn23)cc1OC` [Compound 124, 7-(3,4-dimethoxyphenyl)-N-(5-(4-methylpiperazine-1-carbonyl)pyridin-2-yl)pyrazolo[1,5-a] pyrimidine-2-carboxamide], the EC50 is under 0.2 µM.

For the compound `COc1ccc(-c2ccnc3cc(C(=O)N[C@H]4CC[C@H](C(=O)NCCCN5CCOCC5)CC4)nn23)cc1OC` [Compound 203, 7-(3,4-dimethoxyphenyl)-N-((1r,4r)-4-((3-morpholinopropyl)carbamoyl)cyclohexyl) pyrazolo[1,5-a]pyrimidine-2-carboxamide], the EC50 is at least 2 µM.

For `CCOc1ccc(NC(=O)c2cc3nccc(-c4ccc(OC)c(OC)c4)n3n2)nc1` [Compound 314, 7-(3,4-dimethoxyphenyl)-N-(5-ethoxypyridin-2-yl)pyrazolo[1,5-a] pyrimidine-2-carboxamide], the EC50 was under 0.2 µM.

`COc1ccc(-c2ccnc3cc(C(=O)Nc4ccc(C(=O)N5CCC(N6CCOCC6)CC5)cc4F)nn23)cc1OC` [Compound 349, 7-(3,4-dimethoxyphenyl)-N-(2-fluoro-4-(4-morpholinopiperidine-1-carbonyl)phenyl)pyrazolo [1,5-a]pyrimidine-2-carboxamide]: the EC50 is under 0.2 µM.

Regarding `COc1ccc(-c2ccnc3cc(C(=O)NC45CC(C(N)=O)(C4)C5)nn23)cc1OC` [Compound 95, N-(3-carbamoylbicyclo [1.1.1]pentan-1-yl)-7-(3,4-dimethoxyphenyl) pyrazolo[1,5-a]pyrimidine-2-carboxamide], the EC50 was at least 2 µM.

With `COc1ccc(-c2ccnc3cc(C(=O)N4CCN(C(=O)c5ccccc5)CC4)nn23)cc1OC` [Compound 209, (4-benzoylpiperazin-1-yl)(7-(3,4-dimethoxyphenyl)pyrazolo [1,5-a]pyrimidin-2-yl)methanone], the EC50 is under 0.2 µM.

Consider `COc1ccc(-c2ccnc3cc(C(=O)Nc4ccc(C(=O)N(C)CCN(C)C)cc4)nn23)cc1OC` [Compound 219, 7-(3,4-dimethoxyphenyl)-N-(4-((2-(dimethylamino)ethyl) (methyl)carbamoyl)phenyl)pyrazolo[1,5-a] pyrimidine-2-carboxamide], for which the EC50 is at least 2 µM.

On to `COc1cccc(C(=O)N2CCN(C(=O)c3cc4nccc(-c5ccc(OC)c(OC)c5)n4n3)C[C@@H]2C)c1` [Compound 318, (S)-(7-(3,4-dimethoxyphenyl)pyrazolo[1,5-a]pyrimidin-2-yl)(4-(3-methoxybenzoyl)-3-methylpiperazin-1-yl) methanone], for which the EC50 lay within 0.2 to 2 µM.

As for `CCN(CC)CCNC(=O)c1ccc(NC(=O)c2cc3nccc(-c4ccc(OC)c(OC)c4)n3n2)cc1` [Compound 221, N-(4-((2-(diethylamino)ethyl)carbamoyl)phenyl)-7-(3,4-dimethoxyphenyl)pyrazolo [1,5-a]pyrimidine-2-carboxamide], the EC50 is at least 2 µM.

As for `COc1ccc(-c2ccnc3cc(C(=O)N4C[C@@H](C)N[C@@H](C)C4)nn23)cc1OC` [Compound 358, (7-(3,4-dimethoxyphenyl)pyrazolo[1,5-a]pyrimidin-2-yl) ((3R,5S)-3,5-dimethylpiperazin-1-yl) methanone], the EC50 was 0.2 to 2 µM.

Take `COc1ccc(-c2ccnc3cc(C(=O)N4CCc5ccc(C(=O)O)cc54)nn23)cc1OC` [Compound 232, 1-(7-(3,4-dimethoxyphenyl)pyrazolo[1,5-a]pyrimidine-2-carbonyl) indoline-6-carboxylic acid]: the EC50 was at least 2 µM.

`COc1ccc(-c2ccnc3cc(C(=O)N4CCN(C(=O)C5CC5)CC4)nn23)cc1OC` [Compound 110, (4-(cyclopropanecarbonyl)piperazin-1-yl)(7-(3,4-dimethoxyphenyl)pyrazolo[1,5-a]pyrimidin-2-yl)methanone]: the EC50 was in the range of 0.2 to 2 µM.

Turning to `COc1ccc(-c2ccnc3cc(C(=O)N4CCN(C(=O)c5ccccc5)C(C)(C)C4)nn23)cc1OC` [Compound 211, (4-benzoyl-3,3-dimethylpiperazin-1-yl) (7-(3,4-dimethoxyphenyl)pyrazolo [1,5-a]pyrimidin-2-yl)methanone], the EC50 was in the range of 0.2 to 2 µM.

`COC(=O)c1ccc(NC(=O)c2cc3nccc(-c4ccc(OC)cc4)n3n2)cc1` [Compound 23, methyl 4-(7-(4-methoxyphenyl)pyrazolo[1,5-a]pyrimidine-2-carboxamido)benzoate]: the EC50 is at least 2 µM.

Take `COc1ccc(-c2ccnc3cc(C(=O)Nc4cc(C(F)(F)F)cc(C(F)(F)F)c4)nn23)cc1OC` [Compound 291, N-(3,5-bis(trifluoromethyl)phenyl)-7-(3,4-dimethoxyphenyl)pyrazolo [1,5-a]pyrimidine-2-carboxamide]: the EC50 is at least 2 µM.

For the compound `COc1ccc(-c2ccnc3cc(C(=O)Nc4ccc5c(c4)OCO5)nn23)cc1OC` [Compound 310, N-(benzo[d][1,3]dioxol-5-yl)-7-(3,4-dimethoxyphenyl)pyrazolo[1,5-a]pyrimidine-2-carboxamide], the EC50 is under 0.2 µM.

Consider `COc1ccc(-c2ccnc3cc(C(=O)Nc4ccc(N5CCOCC5)cn4)nn23)c(F)c1` [Compound 297, 7-(2-fluoro-4-methoxyphenyl)-N-(5-morpholinopyridin-2-yl) pyrazolo[1,5-a]pyrimidine-2-carboxamide], for which the EC50 was at least 2 µM.

With `COc1ccc(-c2ccnc3cc(C(=O)N4CCN(Cc5ccccc5)[C@@H](C)C4)nn23)cc1OC` [Compound 206, (S)-(4-benzyl-3-methylpiperazin-1-yl) (7-(3,4-dimethoxyphenyl)pyrazolo [1,5-a]pyrimidin-2-yl)methanone], the EC50 fell in the range of 0.2 to 2 µM.

On to `COc1ccc(-c2ccnc3cc(C(=O)Nc4ccc(C(=O)N5CCN(C)CC5)nc4)nn23)cc1OC` [Compound 265, 7-(3,4-dimethoxyphenyl)-N-(6-(4-methylpiperazine-1-carbonyl)pyridin-3-yl)pyrazolo[1,5-a] pyrimidine-2-carboxamide], for which the EC50 was at least 2 µM.

As to `COC(=O)c1ccc(NC(=O)c2cc3nccc(-c4cccc(OC)c4)n3n2)cc1` [Compound 25, methyl 4-(7-(3-methoxyphenyl)pyrazolo [1,5-a]pyrimidine-2-carboxamido) benzoate], the EC50 was at least 2 µM.

Turning to `COc1ccc(-c2ccnc3cc(C(=O)N4C[C@H](C)N(C(=O)c5ccccc5)C[C@@H]4C)nn23)cc1OC` [Compound 366, ((2S,5S)-4-benzoyl-2,5-dimethylpiperazin-1-yl)(7-(3,4-dimethoxyphenyl)pyrazolo[1,5-a]pyrimidin-2-yl)methanone], the EC50 was under 0.2 µM.

Turning to `CCCCOC(=O)c1ccc(NC(=O)c2cc3nccc(-c4ccc(OC)c(OC)c4)n3n2)cc1` [Compound 336, butyl 4-(7-(3,4-dimethoxyphenyl)pyrazolo[1,5-a]pyrimidine-2-carboxamido) benzoate], the EC50 was in the range of 0.2 to 2 µM.
